According to the supplement of paper PMC10307832:

Columns and labels:
Test in all cases: relative viability (nuclei count vs DMSO), 5 days (fraction); higher = more cells survive
Motesanib + Decitabine = compound: CC1(C)CNc2cc(NC(=O)c3cccnc3NCc3ccncc3)ccc21 [Motesanib] + Nc1ncn([C@H]2C[C@H](O)[C@@H](CO)O2)c(=O)n1 [Decitabine] (partner 2 µM)
Summary of the method: (§1)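 Relative viability was taken as the ratio of nuclei in treated wells to nuclei in vehicle wells. Lung cancer cell lines in 1536-well plates received compounds by pin tool one day after seeding, either one drug alone or a fixed anchor-drug dose plus five library-drug doses (not always all listed) in √10 steps. Nuclei were counted on 4× images after 5 days of treatment, and values are medians of duplicate plates.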

Motesanib + Luminespib = compound: CC1(C)CNc2cc(NC(=O)c3cccnc3NCc3ccncc3)ccc21 [Motesanib] + CCNC(=O)c1noc(-c2cc(C(C)C)c(O)cc2O)c1-c1ccc(CN2CCOCC2)cc1 [Luminespib] (partner 0.01 µM)
Summary of the method: as §1

Motesanib + Phenformin = compound: CC1(C)CNc2cc(NC(=O)c3cccnc3NCc3ccncc3)ccc21 [Motesanib] + N=C(N)NC(=N)NCCc1ccccc1 [Phenformin] (partner 250 µM)
Summary of the method: as §1

[1] = compound: C[C@@]1(C(=O)Nc2ccc(F)nc2)CCCN1c1nc(Nc2cc(C3CC3)n[nH]2)c2cccn2n1 + C[C@]1(O)C[C@@H](c2nc(-c3ccc4ccc(-c5ccccc5)nc4c3)c3c(N)nccn32)C1 [Linsitinib] (partner 1 µM)
Summary of the method: as §1

NCI-H1650
relative viability (Motesanib + Decitabine; first compound 0.01 µM): 0.53 | relative viability (Motesanib + Decitabine; first compound 0.03162 µM): 0.352 | relative viability (Motesanib + Decitabine; first compound 0.1 µM): 0.445 | relative viability (Motesanib + Decitabine; first compound 0.3162 µM): 0.546 | relative viability (Motesanib + Decitabine; first compound 1 µM): 0.564 | relative viability (Motesanib + Luminespib; first compound 0.01 µM): 0.181 | relative viability (Motesanib + Luminespib; first compound 0.03162 µM): 0.179 | relative viability (Motesanib + Luminespib; first compound 0.1 µM): 0.185 | relative viability (Motesanib + Luminespib; first compound 0.3162 µM): 0.19 | relative viability (Motesanib + Luminespib; first compound 1 µM): 0.2 | relative viability (Motesanib + Phenformin; first compound 0.01 µM): 0.489 | relative viability (Motesanib + Phenformin; first compound 0.03162 µM): 0.304 | relative viability (Motesanib + Phenformin; first compound 0.1 µM): 0.394 | relative viability (Motesanib + Phenformin; first compound 0.3162 µM): 0.417 | relative viability (Motesanib + Phenformin; first compound 1 µM): 0.403

ChaGo-K-1
relative viability (Motesanib + Decitabine; first compound 0.01 µM): 0.506 | relative viability (Motesanib + Decitabine; first compound 0.03162 µM): 0.556 | relative viability (Motesanib + Decitabine; first compound 0.1 µM): 0.544 | relative viability (Motesanib + Decitabine; first compound 0.3162 µM): 0.661 | relative viability (Motesanib + Decitabine; first compound 1 µM): 0.607 | relative viability (Motesanib + Luminespib; first compound 0.01 µM): 0.525 | relative viability (Motesanib + Luminespib; first compound 0.03162 µM): 0.656 | relative viability (Motesanib + Luminespib; first compound 0.1 µM): 0.589 | relative viability (Motesanib + Luminespib; first compound 0.3162 µM): 0.552 | relative viability (Motesanib + Luminespib; first compound 1 µM): 0.588 | relative viability (Motesanib + Phenformin; first compound 0.01 µM): 0.473 | relative viability (Motesanib + Phenformin; first compound 0.03162 µM): 0.436 | relative viability (Motesanib + Phenformin; first compound 0.1 µM): 0.509 | relative viability (Motesanib + Phenformin; first compound 0.3162 µM): 0.499 | relative viability (Motesanib + Phenformin; first compound 1 µM): 0.528

NCI-H2228
relative viability ([1]; first compound 0.04 µM): 0.679 | relative viability ([1]; first compound 0.1265 µM): 0.616 | relative viability ([1]; first compound 0.4 µM): 0.69 | relative viability ([1]; first compound 1.265 µM): 0.769 | relative viability (Motesanib + Luminespib; first compound 0.01 µM): 0.19 | relative viability (Motesanib + Luminespib; first compound 0.03162 µM): 0.148 | relative viability (Motesanib + Luminespib; first compound 0.1 µM): 0.228 | relative viability (Motesanib + Luminespib; first compound 0.3162 µM): 0.142 | relative viability (Motesanib + Luminespib; first compound 1 µM): 0.163 | relative viability (Motesanib + Phenformin; first compound 0.01 µM): 0.26 | relative viability (Motesanib + Phenformin; first compound 0.03162 µM): 0.329 | relative viability (Motesanib + Phenformin; first compound 0.1 µM): 0.257 | relative viability (Motesanib + Phenformin; first compound 0.3162 µM): 0.394 | relative viability (Motesanib + Phenformin; first compound 1 µM): 0.208

SW 900
relative viability (Motesanib + Decitabine; first compound 0.01 µM): 0.58 | relative viability (Motesanib + Decitabine; first compound 0.03162 µM): 0.475 | relative viability (Motesanib + Decitabine; first compound 0.1 µM): 0.632 | relative viability (Motesanib + Decitabine; first compound 0.3162 µM): 0.677 | relative viability (Motesanib + Decitabine; first compound 1 µM): 0.749 | relative viability (Motesanib + Luminespib; first compound 0.01 µM): 0.172 | relative viability (Motesanib + Luminespib; first compound 0.03162 µM): 0.181 | relative viability (Motesanib + Luminespib; first compound 0.1 µM): 0.182 | relative viability (Motesanib + Luminespib; first compound 0.3162 µM): 0.168 | relative viability (Motesanib + Luminespib; first compound 1 µM): 0.167 | relative viability (Motesanib + Phenformin; first compound 0.01 µM): 0.58 | relative viability (Motesanib + Phenformin; first compound 0.03162 µM): 0.599 | relative viability (Motesanib + Phenformin; first compound 0.1 µM): 0.552 | relative viability (Motesanib + Phenformin; first compound 0.3162 µM): 0.621 | relative viability (Motesanib + Phenformin; first compound 1 µM): 0.739

NCI-H1563
relative viability ([1]; first compound 0.04 µM): 1.11 | relative viability ([1]; first compound 0.1265 µM): 1.07 | relative viability ([1]; first compound 0.4 µM): 1.06 | relative viability ([1]; first compound 1.265 µM): 1.16 | relative viability (Motesanib + Luminespib; first compound 0.01 µM): 0.523 | relative viability (Motesanib + Luminespib; first compound 0.03162 µM): 0.504 | relative viability (Motesanib + Luminespib; first compound 0.1 µM): 0.54 | relative viability (Motesanib + Luminespib; first compound 0.3162 µM): 0.542 | relative viability (Motesanib + Luminespib; first compound 1 µM): 0.487 | relative viability (Motesanib + Phenformin; first compound 0.01 µM): 0.617 | relative viability (Motesanib + Phenformin; first compound 0.03162 µM): 0.598 | relative viability (Motesanib + Phenformin; first compound 0.1 µM): 0.697 | relative viability (Motesanib + Phenformin; first compound 0.3162 µM): 0.715 | relative viability (Motesanib + Phenformin; first compound 1 µM): 0.655

A549
relative viability ([1]; first compound 0.04 µM): 0.681 | relative viability ([1]; first compound 0.1265 µM): 0.571 | relative viability ([1]; first compound 0.4 µM): 0.401 | relative viability ([1]; first compound 1.265 µM): 0.79 | relative viability (Motesanib + Decitabine; first compound 0.01 µM): 0.261 | relative viability (Motesanib + Decitabine; first compound 0.03162 µM): 0.216 | relative viability (Motesanib + Decitabine; first compound 0.1 µM): 0.327 | relative viability (Motesanib + Decitabine; first compound 0.3162 µM): 0.278 | relative viability (Motesanib + Decitabine; first compound 1 µM): 0.338 | relative viability (Motesanib + Phenformin; first compound 0.01 µM): 0.0998 | relative viability (Motesanib + Phenformin; first compound 0.03162 µM): 0.109 | relative viability (Motesanib + Phenformin; first compound 0.1 µM): 0.165 | relative viability (Motesanib + Phenformin; first compound 0.3162 µM): 0.178 | relative viability (Motesanib + Phenformin; first compound 1 µM): 0.247

NCI-H2342
relative viability (Motesanib + Decitabine; first compound 0.01 µM): 0.765 | relative viability (Motesanib + Decitabine; first compound 0.03162 µM): 0.608 | relative viability (Motesanib + Decitabine; first compound 0.1 µM): 0.759 | relative viability (Motesanib + Decitabine; first compound 0.3162 µM): 0.765 | relative viability (Motesanib + Decitabine; first compound 1 µM): 0.9 | relative viability (Motesanib + Luminespib; first compound 0.01 µM): 0.647 | relative viability (Motesanib + Luminespib; first compound 0.03162 µM): 0.622 | relative viability (Motesanib + Luminespib; first compound 0.1 µM): 0.795 | relative viability (Motesanib + Luminespib; first compound 0.3162 µM): 0.642 | relative viability (Motesanib + Luminespib; first compound 1 µM): 0.841 | relative viability (Motesanib + Phenformin; first compound 0.01 µM): 0.448 | relative viability (Motesanib + Phenformin; first compound 0.03162 µM): 0.588 | relative viability (Motesanib + Phenformin; first compound 0.1 µM): 0.807 | relative viability (Motesanib + Phenformin; first compound 0.3162 µM): 0.562 | relative viability (Motesanib + Phenformin; first compound 1 µM): 0.662

NCI-H2170
relative viability (Motesanib + Decitabine; first compound 0.01 µM): 0.485 | relative viability (Motesanib + Decitabine; first compound 0.03162 µM): 0.509 | relative viability (Motesanib + Decitabine; first compound 0.1 µM): 0.575 | relative viability (Motesanib + Decitabine; first compound 0.3162 µM): 0.576 | relative viability (Motesanib + Decitabine; first compound 1 µM): 0.604 | relative viability (Motesanib + Luminespib; first compound 0.01 µM): 0.628 | relative viability (Motesanib + Luminespib; first compound 0.03162 µM): 0.726 | relative viability (Motesanib + Luminespib; first compound 0.1 µM): 0.39 | relative viability (Motesanib + Luminespib; first compound 0.3162 µM): 0.734 | relative viability (Motesanib + Luminespib; first compound 1 µM): 0.645 | relative viability (Motesanib + Phenformin; first compound 0.01 µM): 0.469 | relative viability (Motesanib + Phenformin; first compound 0.03162 µM): 0.359 | relative viability (Motesanib + Phenformin; first compound 0.1 µM): 0.447 | relative viability (Motesanib + Phenformin; first compound 0.3162 µM): 0.489 | relative viability (Motesanib + Phenformin; first compound 1 µM): 0.409

NCI-H1623
relative viability (Motesanib + Luminespib; first compound 0.01 µM): 0.605 | relative viability (Motesanib + Luminespib; first compound 0.03162 µM): 0.506 | relative viability (Motesanib + Luminespib; first compound 0.1 µM): 0.49 | relative viability (Motesanib + Luminespib; first compound 0.3162 µM): 0.306 | relative viability (Motesanib + Luminespib; first compound 1 µM): 0.515 | relative viability (Motesanib + Phenformin; first compound 0.01 µM): 0.551 | relative viability (Motesanib + Phenformin; first compound 0.03162 µM): 0.613 | relative viability (Motesanib + Phenformin; first compound 0.1 µM): 0.594 | relative viability (Motesanib + Phenformin; first compound 0.3162 µM): 0.617 | relative viability (Motesanib + Phenformin; first compound 1 µM): 0.578

NCI-H522
relative viability (Motesanib + Decitabine; first compound 0.01 µM): 0.615 | relative viability (Motesanib + Decitabine; first compound 0.03162 µM): 0.675 | relative viability (Motesanib + Decitabine; first compound 0.1 µM): 0.639 | relative viability (Motesanib + Decitabine; first compound 0.3162 µM): 0.725 | relative viability (Motesanib + Decitabine; first compound 1 µM): 0.691 | relative viability (Motesanib + Luminespib; first compound 0.03162 µM): 1.14 | relative viability (Motesanib + Luminespib; first compound 0.1 µM): 1.22 | relative viability (Motesanib + Luminespib; first compound 0.3162 µM): 1.18 | relative viability (Motesanib + Luminespib; first compound 1 µM): 1.1 | relative viability (Motesanib + Phenformin; first compound 0.01 µM): 0.644 | relative viability (Motesanib + Phenformin; first compound 0.03162 µM): 0.634 | relative viability (Motesanib + Phenformin; first compound 0.1 µM): 0.581 | relative viability (Motesanib + Phenformin; first compound 0.3162 µM): 0.582 | relative viability (Motesanib + Phenformin; first compound 1 µM): 0.667

IA-LM
relative viability ([1]; first compound 0.04 µM): 0.602 | relative viability ([1]; first compound 0.1265 µM): 0.718 | relative viability ([1]; first compound 0.4 µM): 0.459 | relative viability ([1]; first compound 1.265 µM): 0.452

CAL-12T
relative viability ([1]; first compound 0.04 µM): 0.827 | relative viability ([1]; first compound 0.1265 µM): 0.849 | relative viability ([1]; first compound 0.4 µM): 0.78 | relative viability ([1]; first compound 1.265 µM): 0.817 | relative viability (Motesanib + Luminespib; first compound 0.01 µM): 0.371 | relative viability (Motesanib + Luminespib; first compound 0.03162 µM): 0.375 | relative viability (Motesanib + Luminespib; first compound 0.1 µM): 0.195 | relative viability (Motesanib + Luminespib; first compound 0.3162 µM): 0.567 | relative viability (Motesanib + Luminespib; first compound 1 µM): 0.175 | relative viability (Motesanib + Phenformin; first compound 0.01 µM): 0.562 | relative viability (Motesanib + Phenformin; first compound 0.03162 µM): 0.487 | relative viability (Motesanib + Phenformin; first compound 0.1 µM): 0.61 | relative viability (Motesanib + Phenformin; first compound 0.3162 µM): 0.627 | relative viability (Motesanib + Phenformin; first compound 1 µM): 0.534

EBC-1
relative viability ([1]; first compound 0.04 µM): 0.953 | relative viability ([1]; first compound 0.1265 µM): 0.76 | relative viability ([1]; first compound 0.4 µM): 0.706 | relative viability ([1]; first compound 1.265 µM): 0.891
